Data as given in the supplement of paper PMC10307832.

Tests used:
Experiment in all cases: relative viability (nuclei count vs DMSO), 5 days (fraction); higher = more cells survive
Conditions in all cases: main component drawn
[1] = compound: CC1=C(N=C(N=C1N)[C@H](CC(=O)N)NC[C@@H](C(=O)N)N)C(=O)N[C@@H]([C@H](C2=CN=CN2)OC3C(C(C(C(O3)CO)O)O)OC4C(C(C(C(O4)CO)O)OC(=O)N)O)C(=O)N[C@H](C)[C@H]([C@H](C)C(=O)N[C@@H]([C@@H](C)O)C(=O)NCCC5=NC(=CS5)C6=NC(=CS6)C(=O)NCCC[S+](C)C)O [Bleomycin] + Cc1cc(Nc2cc(N3CCN(C)CC3)nc(Sc3ccc(NC(=O)C4CC4)cc3)n2)n[nH]1 [Tozasertib] (partner 0.1 µM)
Procedure, shortened: (§1)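 Five library-drug doses in √10 steps were combined with a fixed anchor-drug dose, or a single drug was given alone, by pin tool to lung cancer cell lines in 1536-well plates the day after seeding. Nuclei were stained and counted after 5 days. Relative viability is the nuclei count in treated wells over that in vehicle wells, taken as the median of duplicate plates.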

[2] = compound: CC1=C(N=C(N=C1N)[C@H](CC(=O)N)NC[C@@H](C(=O)N)N)C(=O)N[C@@H]([C@H](C2=CN=CN2)OC3C(C(C(C(O3)CO)O)O)OC4C(C(C(C(O4)CO)O)OC(=O)N)O)C(=O)N[C@H](C)[C@H]([C@H](C)C(=O)N[C@@H]([C@@H](C)O)C(=O)NCCC5=NC(=CS5)C6=NC(=CS6)C(=O)NCCC[S+](C)C)O [Bleomycin] + CS(=O)(=O)N1CCN(Cc2cc3nc(-c4cccc5[nH]ncc45)nc(N4CCOCC4)c3s2)CC1 [Pictilisib] (partner 1 µM)
Procedure, shortened: as §1

[3] = compound: CC1=C(N=C(N=C1N)[C@H](CC(=O)N)NC[C@@H](C(=O)N)N)C(=O)N[C@@H]([C@H](C2=CN=CN2)OC3C(C(C(C(O3)CO)O)O)OC4C(C(C(C(O4)CO)O)OC(=O)N)O)C(=O)N[C@H](C)[C@H]([C@H](C)C(=O)N[C@@H]([C@@H](C)O)C(=O)NCCC5=NC(=CS5)C6=NC(=CS6)C(=O)NCCC[S+](C)C)O [Bleomycin] + C[C@]1(O)C[C@@H](c2nc(-c3ccc4ccc(-c5ccccc5)nc4c3)c3c(N)nccn32)C1 [Linsitinib] (partner 1 µM)
Procedure, shortened: as §1

[4] = compound: CC1=C(N=C(N=C1N)[C@H](CC(=O)N)NC[C@@H](C(=O)N)N)C(=O)N[C@@H]([C@H](C2=CN=CN2)OC3C(C(C(C(O3)CO)O)O)OC4C(C(C(C(O4)CO)O)OC(=O)N)O)C(=O)N[C@H](C)[C@H]([C@H](C)C(=O)N[C@@H]([C@@H](C)O)C(=O)NCCC5=NC(=CS5)C6=NC(=CS6)C(=O)NCCC[S+](C)C)O [Bleomycin] + COc1cccc2cc(-c3nc([C@H]4CC[C@H](C(=O)O)CC4)n4ncnc(N)c34)[nH]c12 [OSI-027] (partner 0.5 µM)
Procedure, shortened: as §1

| Cell Line | relative viability ([1]; first compound 0.01 µM) | relative viability ([1]; first compound 0.03162 µM) | relative viability ([1]; first compound 0.1 µM) | relative viability ([1]; first compound 0.3162 µM) | relative viability ([1]; first compound 1 µM) | relative viability ([2]; first compound 0.01 µM) | relative viability ([2]; first compound 0.03162 µM) | relative viability ([2]; first compound 0.1 µM) | relative viability ([2]; first compound 0.3162 µM) | relative viability ([2]; first compound 1 µM) | relative viability ([3]; first compound 0.01 µM) | relative viability ([3]; first compound 0.03162 µM) | relative viability ([3]; first compound 0.1 µM) | relative viability ([3]; first compound 0.3162 µM) | relative viability ([3]; first compound 1 µM) | relative viability ([4]; first compound 0.01 µM) | relative viability ([4]; first compound 0.03162 µM) | relative viability ([4]; first compound 0.1 µM) | relative viability ([4]; first compound 0.3162 µM) | relative viability ([4]; first compound 1 µM) |
| --- | --- | --- | --- | --- | --- | --- | --- | --- | --- | --- | --- | --- | --- | --- | --- | --- | --- | --- | --- | --- |
| NCI-H650 | 0.584 | 0.627 | 0.57 | 0.231 | 0.188 | 0.628 | 0.764 | 0.728 | 0.483 | 0.25 | 0.585 | 0.791 | 0.582 | 0.328 | 0.199 | 0.433 | 0.546 | 0.481 | 0.429 | 0.234 |
| NCI-H661 | 0.366 | 0.359 | 0.36 | 0.374 | 0.35 | 0.523 | 0.387 | 0.263 | 0.25 | 0.245 | 0.563 | 0.423 | 0.312 | 0.221 | 0.217 | 0.632 | 0.683 | 0.4 | 0.23 | 0.235 |
| NCI-H727 | 0.761 | 0.578 | 0.732 | – | 0.596 | 0.375 | 0.299 | 0.268 | 0.239 | 0.357 | 0.293 | 0.251 | 0.33 | 0.183 | 0.34 | 0.731 | 0.685 | 0.637 | – | 0.528 |
| NCI-H838 | 0.238 | 0.211 | 0.178 | 0.15 | 0.139 | 0.414 | 0.28 | 0.18 | 0.156 | 0.202 | 0.652 | 0.314 | 0.191 | 0.189 | 0.159 | 0.347 | 0.269 | 0.186 | 0.173 | 0.174 |
| NCI-H1355 | 0.511 | 0.596 | 0.478 | 0.255 | 0.224 | 0.425 | 0.458 | 0.358 | 0.214 | 0.214 | 0.794 | 0.838 | 0.783 | 0.463 | 0.287 | 0.459 | 0.416 | 0.427 | 0.258 | 0.194 |
| NCI-H1395 | 0.646 | 0.695 | 0.619 | 0.407 | 0.404 | 0.579 | 0.6 | 0.476 | 0.686 | 0.489 | 0.715 | 0.843 | 0.666 | 0.626 | 0.391 | 0.533 | 0.647 | 0.516 | 0.367 | 0.404 |
| NCI-H1437 | 0.369 | 0.404 | 0.369 | 0.309 | 0.324 | 0.47 | 0.407 | 0.24 | 0.146 | 0.224 | 0.88 | 0.936 | 0.85 | 0.417 | 0.357 | 0.76 | 0.848 | 0.748 | 0.522 | 0.368 |
| NCI-H1651 | 0.529 | 0.455 | 0.303 | 0.156 | 0.105 | 0.576 | 0.517 | 0.44 | 0.249 | 0.153 | 0.862 | 0.766 | 0.596 | 0.27 | 0.152 | 0.671 | 0.524 | 0.551 | 0.323 | 0.186 |
| NCI-H1666 | 0.4 | 0.462 | 0.458 | 0.391 | 0.344 | 0.428 | 0.375 | 0.391 | 0.183 | 0.256 | 0.677 | 0.543 | 0.486 | 0.335 | 0.269 | 0.678 | 0.671 | 0.636 | 0.515 | 0.408 |
| NCI-H1734 | 0.222 | 0.223 | 0.279 | 0.199 | 0.15 | 0.382 | 0.411 | 0.357 | 0.267 | 0.22 | 0.73 | 0.669 | 0.553 | 0.311 | 0.227 | 0.565 | 0.544 | 0.465 | 0.254 | 0.226 |
| NCI-H1755 | 0.54 | 0.54 | 0.636 | 0.468 | 0.333 | 0.429 | 0.498 | 0.385 | 0.282 | 0.247 | 0.97 | 0.992 | 0.981 | 0.767 | 0.618 | 0.67 | 0.727 | 0.706 | 0.718 | 0.427 |
| NCI-H1793 | 0.339 | 0.308 | 0.362 | 0.191 | 0.171 | 0.398 | 0.314 | 0.312 | 0.233 | 0.169 | 0.943 | 0.762 | 0.719 | 0.276 | 0.249 | 0.271 | 0.311 | 0.249 | 0.156 | 0.138 |
| NCI-H1915 | 0.317 | 0.347 | 0.229 | 0.162 | 0.133 | 0.575 | 0.65 | 0.535 | 0.247 | 0.146 | 0.891 | 1.01 | 0.813 | 0.428 | 0.216 | 0.434 | 0.429 | 0.373 | 0.21 | 0.144 |
| NCI-H1944 | 0.196 | 0.197 | 0.187 | 0.147 | 0.12 | 0.284 | 0.282 | 0.271 | 0.204 | 0.184 | 0.781 | 0.815 | 0.5 | 0.507 | 0.238 | 0.279 | 0.278 | 0.224 | 0.179 | 0.151 |
